Source: PMC8456958, “Selective Bacterial Targeting and Infection‐Triggered Release of Antibiotic Colistin Conjugates” (Angewandte Chemie (International Ed. in English), 2021)
Values after ≈ are worked out from the molar mass of the structure shown.

Columns and labels:
[1] = test system: E. coli K12; format: cell-based, Escherichia coli; settings: for MIC with 10 mU mL^−1 Elastase / MIC with 100 mU mL^−1 Elastase / MIC without Elastase: Table 2, E. coli K12, conservative MIC readouts of at least three independent biological experiments
Description: Determination of antibacterial activities by broth dilution assay
Bacterial suspensions at 5-6 x 10^5 CFU (1:1000 dilution of a bacterial suspension of OD600 = 1) in T-medium were incubated in volumes of 200 µl in sterile clear 96-well microtiter plates at 37 °C in a wet chamber with serial dilution of peptide-colistin constructs and controls (32 – 0.016 µM) for 18 h.
External neutrophil elastase was added at 10 mU/ml or 100 mU/ml to each well at the start of incubation, where indicated. After the incubation, the plate was placed for 5 min on a MTP shaker to generate homogenous bacterial suspensions. OD600 was then determined in a microplate reader. The wells with the lowest compound concentration without growth defined the MICs. […]
Figure S7. Heat plot of the growth of E. coli K12 and E. coli DSM 1116 in presence of 6. Rows A-D: E. coli K12; Rows E-H: E. coli DSM 1116; A + E colistin; B + F peptide-colistin construct 6; C + G peptide-colistin construct 6 + 10 mU/ml elastase; D + H bacteria without compounds. The numbers below the heatplot depict the concentration of colistin and peptides in µM. Conditions: T medium, incubation 20 h at 37 °C in wet chamber; inoculum: cultures at OD = 1.0 diluted 1:1000 (5-6 x 10^5 CFU/ml). […]
Figure S10. Heat plot of the growth of E. coli in presence of 48 and 49. Row A: E. coli K12 without added compounds; B colistin B; C peptide-colistin construct 49; D peptide-colistin construct 49 + 10 mU/ml elastase; E ElsaSub-colistin; F 48 with 10 mU elastase; G 4; H 4 with […]. The numbers depict the concentration of colistin and peptides in µM. Conditions: T medium, incubation 17.5 h at 37 °C in wet chamber; inoculum 5-6 x 10^5 CFU/ml. […]
with elastase 10 mU/ml pos-1-isomer (22) […]
with elastase 10 mU/ml pos-3-isomer (28) […]
with elastase 10 mU/ml pos-5-isomer (34) […]
with elastase 10 mU/ml pos-8-isomer (40) […]
with elastase 10 mU/ml pos-9-isomer (46)
Figure S11. Heat plot of the growth of E. coli in presence of positional isomers obtained by total chemical synthesis. Conditions: T medium, incubation for 20 h at 37 °C in wet chamber; inoculum 5-6 x 10^5 CFU/ml. Addition of neutrophil elastase at 10 and 100 mU/ml, as indicated. Concentrations of isomers stated below the heat plot in µg/ml. […]

[2] = test system: E. coli K12, A. baumannii, P. aeruginosa PA14; experiment: Quantification of bacterial binding of fluorescently labelled compounds; format: cell-based; settings: 1 μM in PBS, rt, 1 h incubation, washing, 485/520 nm
Description: Figure 4 Staining of Gram‐negative bacteria with fluorescently labeled colistin conjugates. a) Three Gram‐negative bacteria (E. coli K12, A. baumannii, P. aeruginosa PA14) were grown in T‐medium, to an OD600 of 1.0, and the fluorescently labeled compounds were added (1 μM in PBS, rt, 1 h incubation), followed by washing steps and a quantification of fluorescence in the wells. C‐Fluo: 5(6)‐carboxyfluorescein. […] An overlay of fluorescence (485/520 nm) and phase contrast pictures is shown. […]
Cell counting: 20 µl of a cell suspension were mixed with 20 µl Cedex Tryptan Blue Solution. 10 µl of the mixture were measured automatically in a cell counter (Cedex XS Cell Analyzer, Roche) in duplicate.
Quantification of bacterial binding of fluorescently labelled compounds The bacterial strains A. baumannii, E. coli K12 and P. aeruginosa PA14 were cultivated in T-medium at 37 °C to exponential growth (OD600 = 2-3). […] Afterwards, the bacteria were washed twice with PBS, suspended at OD600 = 0.2 in PBS and fluorescence was measured at 485/520 nm with 200 µl of bacterial suspensions in black 96-well microtiter plates from above in triplicate. […]

Compound | MIC with 10 mU mL^−1 Elastase [1] [µM] | MIC with 100 mU mL^−1 Elastase [1] [µM] | MIC without Elastase [1] [µM] | further results
(all-D) T-G-R-A-K-R-R-M-Q-Y-N-R-R-ßAla-norleucinamide(1H-1,2,3-triazol-4-yl)propionyl-ßAla-L-Ala-L-Ala-L-Pro-L-Val-colistin B [Compound 49] |  |  |  | antimicrobial activity (MIC) in the presence of neutrophil elastase ([1]; E. coli K12, 10 mU/ml elastase, T medium, 17.5 h at 37 °C (Figure S10)): > 32 µM; antimicrobial activity (MIC) in the absence of neutrophil elastase ([1]; E. coli K12, T medium, 17.5 h at 37 °C (Figure S10)): > 32 µM
CC[C@H](NC(=O)[C@@H]1C[C@@H]2CCCC[C@@H]2N1C(=O)[C@H](CCS(C)(=O)=O)NC(=O)[C@H](Cc1ccc(C(=O)c2ccccc2)cc1)NC(=O)CCc1cn(CCCC[C@@H](NC(=O)CCNC(=O)[C@@H](CCCNC(=N)N)NC(=O)[C@@H](CCCNC(=N)N)NC(=O)[C@@H](CC(N)=O)NC(=O)[C@@H](Cc2ccc(O)cc2)NC(=O)[C@@H](CCC(N)=O)NC(=O)[C@@H](CCSC)NC(=O)[C@@H](CCCNC(=N)N)NC(=O)[C@@H](CCCNC(=N)N)NC(=O)[C@@H](CCCCN)NC(=O)[C@@H](C)NC(=O)[C@@H](CCCNC(=N)N)NC(=O)CNC(=O)[C@H](N)[C@H](C)O)C(N)=O)nn1)C(=O)NCC[C@H](NC(=O)[C@@H](NC(=O)[C@H](CCN)NC(=O)CCCCC(C)C)[C@@H](C)O)C(=O)N[C@H]1CCNC(=O)[C@H]([C@@H](C)O)NC(=O)[C@H](CCN)NC(=O)[C@H](CCN)NC(=O)[C@H](CC(C)C)NC(=O)[C@@H](CC(C)C)NC(=O)[C@H](CCN)NC1=O [Compound 28] | 0.25 | 0.125 | 8 (≈ 30.4 µg/mL) | 
CC[C@H](NC(=O)[C@@H]1C[C@@H]2CCCC[C@@H]2N1C(=O)[C@H](CCS(C)(=O)=O)NC(=O)[C@H](Cc1ccc(C(=O)c2ccccc2)cc1)NC(=O)CCc1cn(CCCC[C@@H](NC(=O)CCNC(=O)[C@@H](CCCNC(=N)N)NC(=O)[C@@H](CCCNC(=N)N)NC(=O)[C@@H](CC(N)=O)NC(=O)[C@@H](Cc2ccc(O)cc2)NC(=O)[C@@H](CCC(N)=O)NC(=O)[C@@H](CCSC)NC(=O)[C@@H](CCCNC(=N)N)NC(=O)[C@@H](CCCNC(=N)N)NC(=O)[C@@H](CCCCN)NC(=O)[C@@H](C)NC(=O)[C@@H](CCCNC(=N)N)NC(=O)CNC(=O)[C@H](N)[C@H](C)O)C(N)=O)nn1)C(=O)NCC[C@@H]1NC(=O)[C@H](CC(C)C)NC(=O)[C@@H](CC(C)C)NC(=O)[C@H](CCN)NC(=O)[C@@H](NC(=O)[C@H](CCN)NC(=O)[C@@H](NC(=O)[C@H](CCN)NC(=O)CCCCC(C)C)[C@@H](C)O)CCNC(=O)[C@H]([C@@H](C)O)NC(=O)[C@H](CCN)NC1=O [Compound 40] | >32 | 32 | >32 | 
CC[C@H](NC(=O)[C@@H]1C[C@@H]2CCCC[C@@H]2N1C(=O)[C@H](CCS(C)(=O)=O)NC(=O)[C@H](Cc1ccc(C(=O)c2ccccc2)cc1)NC(=O)CCc1cn(CCCC[C@@H](NC(=O)CCNC(=O)[C@@H](CCCNC(=N)N)NC(=O)[C@@H](CCCNC(=N)N)NC(=O)[C@@H](CC(N)=O)NC(=O)[C@@H](Cc2ccc(O)cc2)NC(=O)[C@@H](CCC(N)=O)NC(=O)[C@@H](CCSC)NC(=O)[C@@H](CCCNC(=N)N)NC(=O)[C@@H](CCCNC(=N)N)NC(=O)[C@@H](CCCCN)NC(=O)[C@@H](C)NC(=O)[C@@H](CCCNC(=N)N)NC(=O)CNC(=O)[C@H](N)[C@H](C)O)C(N)=O)nn1)C(=O)NCC[C@@H]1NC(=O)[C@H](CCN)NC(=O)[C@H](CC(C)C)NC(=O)[C@@H](CC(C)C)NC(=O)[C@H](CCN)NC(=O)[C@@H](NC(=O)[C@H](CCN)NC(=O)[C@@H](NC(=O)[C@H](CCN)NC(=O)CCCCC(C)C)[C@@H](C)O)CCNC(=O)[C@H]([C@@H](C)O)NC1=O [Compound 46] | 32 | 8 | >32 | 
CC[C@H](NC(=O)[C@@H]1C[C@@H]2CCCC[C@@H]2N1C(=O)[C@H](CCS(C)(=O)=O)NC(=O)[C@H](Cc1ccc(C(=O)c2ccccc2)cc1)NC(=O)CCc1cn(CCCC[C@@H](NC(=O)CCNC(=O)[C@@H](CCCNC(=N)N)NC(=O)[C@@H](CCCNC(=N)N)NC(=O)[C@@H](CC(N)=O)NC(=O)[C@@H](Cc2ccc(O)cc2)NC(=O)[C@@H](CCC(N)=O)NC(=O)[C@@H](CCSC)NC(=O)[C@@H](CCCNC(=N)N)NC(=O)[C@@H](CCCNC(=N)N)NC(=O)[C@@H](CCCCN)NC(=O)[C@@H](C)NC(=O)[C@@H](CCCNC(=N)N)NC(=O)CNC(=O)[C@H](N)[C@H](C)O)C(N)=O)nn1)C(=O)NCC[C@@H]1NC(=O)[C@@H](NC(=O)[C@H](CCN)NC(=O)[C@@H](NC(=O)[C@H](CCN)NC(=O)CCCCC(C)C)[C@@H](C)O)CCNC(=O)[C@H]([C@@H](C)O)NC(=O)[C@H](CCN)NC(=O)[C@H](CCN)NC(=O)[C@H](CC(C)C)NC(=O)[C@@H](CC(C)C)NC1=O [Compound 34] | 4 | 4 | >32 | 
CC[C@H](NC(=O)[C@@H]1C[C@@H]2CCCC[C@@H]2N1C(=O)[C@H](CCS(C)(=O)=O)NC(=O)[C@H](Cc1ccc(C(=O)c2ccccc2)cc1)NC(=O)CCc1cn(CCCC[C@@H](NC(=O)CCNC(=O)[C@@H](CCCNC(=N)N)NC(=O)[C@@H](CCCNC(=N)N)NC(=O)[C@@H](CC(N)=O)NC(=O)[C@@H](Cc2ccc(O)cc2)NC(=O)[C@@H](CCC(N)=O)NC(=O)[C@@H](CCSC)NC(=O)[C@@H](CCCNC(=N)N)NC(=O)[C@@H](CCCNC(=N)N)NC(=O)[C@@H](CCCCN)NC(=O)[C@@H](C)NC(=O)[C@@H](CCCNC(=N)N)NC(=O)CNC(=O)[C@H](N)[C@H](C)O)C(N)=O)nn1)C(=O)NCC[C@H](NC(=O)CCCCC(C)C)C(=O)N[C@H](C(=O)N[C@@H](CCN)C(=O)N[C@H]1CCNC(=O)[C@H]([C@@H](C)O)NC(=O)[C@H](CCN)NC(=O)[C@H](CCN)NC(=O)[C@H](CC(C)C)NC(=O)[C@@H](CC(C)C)NC(=O)[C@H](CCN)NC1=O)[C@@H](C)O [Compound 22] | 0.125 | 0.063 | 4 (≈ 15.2 µg/mL) | 
4-pentinoyl-ßAla-Ala-Ala-Pro-Val-colistin B (lariat or depsi) [Compound 48] |  |  |  | MIC ([1]; E. coli K12, T medium, 17.5 h at 37 °C (Figure S10), text does not say with or without elastase): 16 µM
Neutrophil elastase: Neutrophil Elastase (human), affinity purified, USBiological |  |  |  | antimicrobial activity of neutrophil elastase alone ([1]; elastase alone, two strains of E. coli (K12 and DSM 1116)): did not display any antimicrobial activity
5(6)‐carboxyfluorescein |  |  |  | bacterial binding (fluorescence), in words [2]: did hardly show binding above background
